Data published in article PMC10709440, “High-throughput ligand profile characterization in novel cell lines expressing seven heterologous insect olfactory receptors for the detection of volatile plant biomarkers” (Scientific Reports, 2023).
Where two headings read alike, the source gives them in different places.

Key:
Drosophila OR85b = biological target: T1, Drosophila OR85b (Drosophila melanogaster, UniProt Q9VHQ7); assay: Calcium ion fluorescence (GCaMP6) assay, OR85b stable HEK293 cell line; format: cell-based; conditions: for Average response: VUAA1-normalized response, mean of biological replicates
T1 construct: expressed in transfected cells
T1 sequence (Q9VHQ7 1-390): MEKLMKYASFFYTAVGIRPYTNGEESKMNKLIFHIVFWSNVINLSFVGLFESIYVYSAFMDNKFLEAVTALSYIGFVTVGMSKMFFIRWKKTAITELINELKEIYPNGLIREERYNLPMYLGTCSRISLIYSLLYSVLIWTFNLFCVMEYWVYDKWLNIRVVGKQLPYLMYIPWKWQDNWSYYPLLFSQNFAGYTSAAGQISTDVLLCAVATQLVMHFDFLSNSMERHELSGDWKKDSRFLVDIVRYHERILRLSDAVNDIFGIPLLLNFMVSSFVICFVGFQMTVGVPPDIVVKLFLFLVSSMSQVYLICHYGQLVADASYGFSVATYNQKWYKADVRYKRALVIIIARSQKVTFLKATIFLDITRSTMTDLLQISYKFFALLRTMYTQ
T1 sequence (Q9VNB5 1-486 partner): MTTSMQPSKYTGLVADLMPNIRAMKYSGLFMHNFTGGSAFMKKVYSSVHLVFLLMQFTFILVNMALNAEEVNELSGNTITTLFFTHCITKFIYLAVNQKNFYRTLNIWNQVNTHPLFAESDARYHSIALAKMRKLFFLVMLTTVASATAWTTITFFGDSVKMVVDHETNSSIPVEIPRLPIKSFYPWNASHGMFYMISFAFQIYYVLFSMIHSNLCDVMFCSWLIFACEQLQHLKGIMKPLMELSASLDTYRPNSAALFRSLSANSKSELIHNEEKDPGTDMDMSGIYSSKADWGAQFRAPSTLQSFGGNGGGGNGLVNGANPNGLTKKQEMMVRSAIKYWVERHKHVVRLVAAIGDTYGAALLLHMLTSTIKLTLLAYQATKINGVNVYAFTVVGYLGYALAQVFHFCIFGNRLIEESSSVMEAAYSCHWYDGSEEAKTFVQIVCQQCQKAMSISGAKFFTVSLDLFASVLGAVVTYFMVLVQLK
Method in brief: (§1)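 Responses are VUAA1-normalized ΔF: each VOC-evoked calcium signal, (FMAX−F0)/F0 over 30 s after injection, divided by the same line's mean 50 µM VUAA1 response. Cells were doxycycline-induced HEK293 with GCaMP6 and the cognate Drosophila OR, in HEPES buffer pH 7.3; ligands tested 0.01–100 μM.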

Drosophila OR10a = biological target: T2, Drosophila OR10a (Drosophila melanogaster, UniProt Q9VYZ1); assay: Calcium ion fluorescence (GCaMP6) assay, OR10a stable HEK293 cell line; format: cell-based
T2 construct: expressed in transfected cells
T2 sequence (Q9VYZ1 1-406): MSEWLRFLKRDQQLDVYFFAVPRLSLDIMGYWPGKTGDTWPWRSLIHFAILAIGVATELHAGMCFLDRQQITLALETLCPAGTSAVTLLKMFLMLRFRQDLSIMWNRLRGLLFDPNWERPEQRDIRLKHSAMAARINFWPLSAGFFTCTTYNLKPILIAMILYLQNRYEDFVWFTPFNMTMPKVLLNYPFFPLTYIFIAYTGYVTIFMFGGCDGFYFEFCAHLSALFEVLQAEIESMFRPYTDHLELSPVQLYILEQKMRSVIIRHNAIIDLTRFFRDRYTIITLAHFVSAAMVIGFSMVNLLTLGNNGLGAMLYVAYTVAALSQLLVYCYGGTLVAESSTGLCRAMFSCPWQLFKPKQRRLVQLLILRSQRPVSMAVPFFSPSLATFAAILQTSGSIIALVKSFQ
T2 sequence (Q9VNB5 1-486 partner): T1 sequence (Q9VNB5 1-486 partner)
Method in brief: as §1

[1] = ligand concentration 1 (unit not given), threshold 0.05, below shown as 0
[2] = ligand concentration 10 (unit not given), threshold 0.05, below shown as 0
[3] = ligand concentration 100 (unit not given), threshold 0.05, below shown as 0
[4] = 1 μM VOC, 50 μM VUAA1 = 1, responses not exceeding 0.05 considered 0
[5] = 10 μM VOC, 50 μM VUAA1 = 1, responses not exceeding 0.05 considered 0
[6] = 100 μM VOC, 50 μM VUAA1 = 1, responses not exceeding 0.05 considered 0
[7] = HEK293, read-out: OR85b response (VUAA1-normalized response)
[8] = concentration 10, normalized fluorescence change, values below 0.05 threshold given as 0

Structure (SMILES) | Average response (Drosophila OR85b; OR85b cell line, cc. 1 µM) | Average response (Drosophila OR85b; OR85b cell line, cc. 10 µM) | Average response (Drosophila OR85b; OR85b cell line, cc. 100 µM) | OR85b response (VUAA1-normalized response) (Drosophila OR85b; VOC concentration 1 μM) | OR85b response (VUAA1-normalized response) (Drosophila OR85b; VOC concentration 10 μM) | OR85b response (VUAA1-normalized response) (Drosophila OR85b; VOC concentration 100 μM) | DF norm AVERAGE OR85b (Drosophila OR85b; [1]) | DF norm AVERAGE OR85b (Drosophila OR85b; [2]) | DF norm AVERAGE OR85b (Drosophila OR85b; [3]) | OR10a Average response (VUAA1-normalized) (Drosophila OR10a; [4]) | OR10a Average response (VUAA1-normalized) (Drosophila OR10a; [5]) | OR10a Average response (VUAA1-normalized) (Drosophila OR10a; [6]) | OR10a response (VUAA1-normalized response) (Drosophila OR10a; VOC concentration 1 μM) | OR10a response (VUAA1-normalized response) (Drosophila OR10a; VOC concentration 10 μM) | OR10a response (VUAA1-normalized response) (Drosophila OR10a; VOC concentration 100 μM) | DF norm AVERAGE OR10a (Drosophila OR10a; [1]) | DF norm AVERAGE OR10a (Drosophila OR10a; [2]) | DF norm AVERAGE OR10a (Drosophila OR10a; [3]) | further results
CC(C)=CCC/C(C)=C/CC/C(C)=C/CO [e,e-farnesol] | 0.053 | 0.08 | 0.00 | 0.053 | 0.08 | 0.00 | 0.05296 | 0.07925 | 0 | 0.034 | 0.0633 | 0.0174 | 0.00 | 0.0633 | 0.00 | 0 | 0.06329 | 0 | –
CCCCCC(=O)OCC [ethyl hexanoate] | 0.00 | 0.05 | 0.0232 | – | – | – | 0 | 0 | 0 | – | – | – | – | – | – | 0.06289 | 0 | 0.08508 | activation at 1 µM (Drosophila OR85b; [7]): 0%; activation at 10 µM (Drosophila OR85b; [7]): 0%; activation at 100 µM (Drosophila OR85b; [7]): 0%; activation at 1 µM (Drosophila OR10a; HEK293, 1 μM VOC, 50 μM VUAA1 = 1, responses not exceeding 0.05 considered 0, read-out: OR10a Average response (VUAA1-normalized)): 6%; activation at 10 µM (Drosophila OR10a; HEK293, 10 μM VOC, 50 μM VUAA1 = 1, responses not exceeding 0.05 considered 0, read-out: OR10a Average response (VUAA1-normalized)): 3%; activation at 100 µM (Drosophila OR10a; HEK293, 100 μM VOC, 50 μM VUAA1 = 1, responses not exceeding 0.05 considered 0, read-out: OR10a Average response (VUAA1-normalized)): 8.51%; activation at 1 µM (Drosophila OR10a; HEK293, read-out: OR10a response (VUAA1-normalized response), VOC concentration 1 μM): 6%; activation at 10 µM (Drosophila OR10a; HEK293, read-out: OR10a response (VUAA1-normalized response), VOC concentration 10 μM): 0%; activation at 100 µM (Drosophila OR10a; HEK293, read-out: OR10a response (VUAA1-normalized response), VOC concentration 100 μM): 8.51%
C=C1[C@H]2CC[C@@H]3[C@H]2C(C)(C)CCC[C@]13C [(+)-longifolene] | 0.08 | 0.11 | 0.05 | 0.08 | 0.11 | 0.00 | – | – | – | 0.08 | 0.0537 | 0.028 | 0.08 | 0.0537 | 0.00 | – | – | – | DF norm AVERAGE OR85b (Drosophila OR85b; concentration 1, normalized fluorescence change, values below 0.05 threshold given as 0): 0.0834; DF norm AVERAGE OR85b (Drosophila OR85b; [8]): 0.1092; DF norm AVERAGE OR85b (Drosophila OR85b; concentration 100, normalized fluorescence change, values below 0.05 threshold given as 0): 0; DF norm AVERAGE OR10a (Drosophila OR10a; [8]): 0.05372
Cc1cccc(C)c1 [m-xylene] | 0.023 | 0.00 | 0.09 | – | – | – | 0 | 0 | 0.08801 | – | – | – | – | – | – | 0 | 0 | 0 | OR85b response (VUAA1-normalized) at 1 μM (Drosophila OR85b; OR85b cell line, VOC concentration 1 μM): 0.00; OR85b response (VUAA1-normalized) at 10 μM (Drosophila OR85b; OR85b cell line, VOC concentration 10 μM): 0.00; OR85b response (VUAA1-normalized) at 100 μM (Drosophila OR85b; OR85b cell line, VOC concentration 100 μM): 0.09; activation at 1 µM (Drosophila OR10a; HEK293, read-out: OR10a Average response (VUAA1-normalized), 1 μM VOC, 50 μM VUAA1 = 1, responses not exceeding 0.05 considered 0): 0%; activation at 10 µM (Drosophila OR10a; HEK293, read-out: OR10a Average response (VUAA1-normalized), 10 μM VOC, 50 μM VUAA1 = 1, responses not exceeding 0.05 considered 0): 0%; activation at 100 µM (Drosophila OR10a; HEK293, read-out: OR10a Average response (VUAA1-normalized), 100 μM VOC, 50 μM VUAA1 = 1, responses not exceeding 0.05 considered 0): 2%; OR10a response (VUAA1-normalized) at 1 μM (Drosophila OR10a; OR10a cell line, VOC concentration 1 μM): 0.00; OR10a response (VUAA1-normalized) at 10 μM (Drosophila OR10a; OR10a cell line, VOC concentration 10 μM): 0.00; OR10a response (VUAA1-normalized) at 100 μM (Drosophila OR10a; OR10a cell line, VOC concentration 100 μM): 0.00
